Data reported in patent publication US8846746B2, “Pyrazole compound and pharmaceutical use thereof” (Japan Tobacco Inc., priority 2011, dated 2014).

biological target: human SGLT1 (Homo sapiens (Human), UniProt P13866); experiment: SGLT1 inhibitory activity: 14C-AMG uptake into CHO-K1 cell line stably expressing human SGLT1; assay type: cell-based; details: 14C-AMG uptake, CHO-K1 cells stably expressing human SGLT1
Method in brief: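 Human SGLT1 was stably expressed in CHO-K1 cells. Cells were first held 20 min in sodium-free buffer, then exposed to compound in Na(+)/BSA buffer with tracer and AMG (2 mM in the added solution).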

Sequence of human SGLT1 (P13866 whole entry): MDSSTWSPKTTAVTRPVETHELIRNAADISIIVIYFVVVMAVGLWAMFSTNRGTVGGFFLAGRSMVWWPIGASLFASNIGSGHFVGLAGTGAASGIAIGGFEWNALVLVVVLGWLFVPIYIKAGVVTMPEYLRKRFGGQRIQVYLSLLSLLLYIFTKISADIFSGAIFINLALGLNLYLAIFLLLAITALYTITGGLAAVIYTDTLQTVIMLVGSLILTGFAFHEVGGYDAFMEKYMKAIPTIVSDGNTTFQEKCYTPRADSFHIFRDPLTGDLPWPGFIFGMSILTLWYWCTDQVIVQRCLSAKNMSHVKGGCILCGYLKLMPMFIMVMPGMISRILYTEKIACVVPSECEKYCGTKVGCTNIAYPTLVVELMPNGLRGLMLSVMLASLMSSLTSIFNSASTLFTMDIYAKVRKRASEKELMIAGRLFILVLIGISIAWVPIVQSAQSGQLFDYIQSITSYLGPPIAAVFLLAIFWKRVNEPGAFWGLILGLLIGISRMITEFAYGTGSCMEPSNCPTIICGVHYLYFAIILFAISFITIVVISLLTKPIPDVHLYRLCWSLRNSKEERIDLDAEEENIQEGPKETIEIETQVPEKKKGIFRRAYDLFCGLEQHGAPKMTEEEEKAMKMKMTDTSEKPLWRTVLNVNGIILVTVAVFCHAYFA

SMILES	IC50 [nM]
O=C1C[C@H](C(=O)Nc2cc(-c3cccc(COCC(F)(F)F)c3)n(-c3ccc(Cl)cc3)n2)CN1 [Example 508]	20
O=C1C[C@H](C(=O)Nc2cc(-c3cccc(COCC(F)(F)F)c3)n(-c3cccc(OC4COC4)c3)n2)CN1 [Example 509]	38
O=C1C[C@H](C(=O)Nc2cc(-c3cc(F)cc(COCC(F)(F)F)c3)n(-c3ccccc3Cl)n2)CN1 [Example 510]	8.3
O=C1C[C@H](C(=O)Nc2cc(-c3cc(F)cc(COCC(F)(F)F)c3)n(-c3cccc(Cl)c3)n2)CN1 [Example 511]	7.9
O=C1C[C@H](C(=O)Nc2cc(-c3cc(F)cc(COCC(F)(F)F)c3)n(-c3ccc(Cl)cc3)n2)CN1 [Example 512]	16
C[C@@H](OCc1cc(F)cc(-c2cc(NC(=O)[C@@H]3CNC(=O)C3)nn2-c2ccccc2Cl)c1)C(F)(F)F [Example 513]	3.2
C[C@@H](OCc1cc(F)cc(-c2cc(NC(=O)[C@@H]3CNC(=O)C3)nn2-c2cccc(Cl)c2)c1)C(F)(F)F [Example 514]	4
COc1ccc(F)c(-n2nc(NC(=O)[C@@H]3CNC(=O)C3)cc2-c2cccc(OC(F)(F)F)c2)c1 [Example 515]	12
CCOc1ccc(F)c(-n2nc(NC(=O)[C@@H]3CNC(=O)C3)cc2-c2cccc(OC(F)(F)F)c2)c1 [Example 516]	8.3
CC(C)Oc1ccc(F)c(-n2nc(NC(=O)[C@@H]3CNC(=O)C3)cc2-c2cccc(OC(F)(F)F)c2)c1 [Example 517]	3.8
COCCOc1ccc(F)c(-n2nc(NC(=O)[C@@H]3CNC(=O)C3)cc2-c2cccc(OC(F)(F)F)c2)c1 [Example 518]	11
O=C1C[C@H](C(=O)Nc2cc(-c3cc(F)cc(COCC(F)(F)F)c3)n(-c3ccccc3F)n2)CN1 [Example 519]	13
O=C1C[C@H](C(=O)Nc2cc(-c3cc(F)cc(COCC(F)(F)F)c3)n(-c3cccc(F)c3)n2)CN1 [Example 520]	18
C[C@@H](OCc1cc(F)cc(-c2cc(NC(=O)[C@@H]3CNC(=O)C3)nn2-c2cccc(F)c2)c1)C(F)(F)F [Example 521]	5.15
COc1ccc(F)c(-n2nc(NC(=O)[C@@H]3CNC(=O)C3)cc2-c2cccc(COCC(F)(F)F)c2)c1 [Example 522]	5.3
COc1ccc(F)c(-n2nc(NC(=O)[C@@H]3CNC(=O)C3)cc2-c2cccc(CO[C@H](C)C(F)(F)F)c2)c1 [Example 523]	2.15
COc1cc(F)cc(-n2nc(NC(=O)[C@@H]3CNC(=O)C3)cc2-c2cccc(OC(F)(F)F)c2)c1 [Example 524]	27
CCOc1cc(F)cc(-n2nc(NC(=O)[C@@H]3CNC(=O)C3)cc2-c2cccc(OC(F)(F)F)c2)c1 [Example 525]	18
CC(C)Oc1cc(F)cc(-n2nc(NC(=O)[C@@H]3CNC(=O)C3)cc2-c2cccc(OC(F)(F)F)c2)c1 [Example 526]	9.2
COc1cc(F)cc(-n2nc(NC(=O)[C@@H]3CNC(=O)C3)cc2-c2cccc(COCC(F)(F)F)c2)c1 [Example 527]	8.5
CCOc1cc(F)cc(-n2nc(NC(=O)[C@@H]3CNC(=O)C3)cc2-c2cccc(COCC(F)(F)F)c2)c1 [Example 528]	3.6

SMILES	IC50 [nM]
CC(C)Oc1cc(F)cc(-n2nc(NC(=O)[C@@H]3CNC(=O)C3)cc2-c2cccc(COCC(F)(F)F)c2)c1 [Example 529]	2.3
CC(C)(C)/C=C/c1cccc(-c2cc(NC(=O)[C@@H]3CNC(=O)C3)nn2-c2ccccc2)c1 [Example 531]	30
COc1cc(F)cc(-n2nc(NC(=O)[C@@H]3CNC(=O)C3)cc2-c2cccc(CO[C@H](C)C(F)(F)F)c2)c1 [Example 533]	2.1
CCOc1cc(F)cc(-n2nc(NC(=O)[C@@H]3CNC(=O)C3)cc2-c2cccc(CO[C@H](C)C(F)(F)F)c2)c1 [Example 534]	1.8
CC(C)Oc1cc(F)cc(-n2nc(NC(=O)[C@@H]3CNC(=O)C3)cc2-c2cccc(CO[C@H](C)C(F)(F)F)c2)c1 [Example 535]	2.8
CC(C)(C)CS(=O)(=O)c1cccc(-c2cc(NC(=O)[C@@H]3CNC(=O)C3)nn2-c2ccccc2)c1 [Example 540]	48
CC(C)CSc1cccc(-c2cc(NC(=O)[C@@H]3CNC(=O)C3)nn2-c2ccccc2)c1 [Example 546]	5.7
C[C@@H](OCc1cccc(-c2cc(NC(=O)[C@@H]3CCC(=O)N3)nn2-c2ccccc2)c1)C(F)(F)F [Example 547]	43
C[C@@H](OCc1cc(F)cc(-c2cc(NC(=O)[C@@H]3CCC(=O)N3)nn2-c2ccccc2)c1)C(F)(F)F [Example 555]	24
O=C1NC[C@@H](C(=O)Nc2cc(-c3cccc(COCC(F)(F)F)c3)n(-c3ccccc3)n2)N1 [Example 558]	38
C[C@H]1C(=O)NC[C@@H]1C(=O)Nc1cc(-c2cccc(COCC(F)(F)F)c2)n(-c2ccccc2)n1 [Example 559]	7.7
C[C@@H](OCc1cccc(-c2cc(NC(=O)[C@H]3CNC(=O)C3)nn2-c2ccccc2)c1)C(F)(F)F [Example 561]	5.5
C[C@@H](OCc1cccc(-c2cc(NC(=O)[C@@H]3CNC(=O)N3)nn2-c2ccccc2)c1)C(F)(F)F [Example 562]	13
C[C@@H]1C(=O)NC[C@H]1C(=O)Nc1cc(-c2cccc(CO[C@H](C)C(F)(F)F)c2)n(-c2ccccc2)n1 [Example 564]	45
C[C@@H](OCc1cccc(-c2cc(NC(=O)C3CCC(=O)NC3)nn2-c2ccccc2)c1)C(F)(F)F (some centres unmarked) [Example 565]	11
CC(C)(OCc1cc(F)cc(-c2cc(NC(=O)[C@@H]3CNC(=O)C3)nn2-c2ccccc2)c1)C(F)(F)F [Example 567]	14
C[C@@H](OCc1cc(F)cc(-c2cc(NC(=O)[C@H]3CNC(=O)N3)nn2-c2ccc(Cl)cc2)c1)C(F)(F)F [Example 570]	8.7
C[C@@H](OCc1cc(F)cc(-c2cc(NC(=O)[C@H]3CNC(=O)O3)nn2-c2ccc(Cl)cc2)c1)C(F)(F)F [Example 571]	9.3
C[C@@H](OCc1cc(F)cc(-c2cc(NC(=O)C3CCC(=O)NC3)nn2-c2ccc(Cl)cc2)c1)C(F)(F)F (some centres unmarked) [Example 572]	5.1
O=C1C[C@H](C(=O)Nc2cc(-c3cc(F)cc(COC(C(F)(F)F)C(F)(F)F)c3)n(-c3ccc(F)cc3)n2)CN1 [Example 573]	13

same assay, conditions: CHO-K1, at 0.00265 uM

SMILES	inhibition at 0.00265 µM [%]
C[C@H]1C(=O)NC[C@@H]1C(=O)Nc1cc(-c2cccc(CO[C@H](C)C(F)(F)F)c2)n(-c2ccccc2)n1 [Example 563]	57

same assay, conditions: CHO-K1, at 0.1 uM

SMILES	inhibition at 0.1 µM [%]
O=C1C[C@H](C(=O)Nc2cc(-c3cccc(OC(F)(F)F)c3)n(-c3ccc(Cl)cc3)n2)CN1 [Example 507]	50
CS(=O)(=O)c1cccc(-n2nc(NC(=O)[C@@H]3CNC(=O)C3)cc2-c2cccc(COCC(F)(F)F)c2)c1 [Example 530]	40
O=C1C[C@H](C(=O)Nc2cc(-c3cccc(C#CC4CC4)c3)n(-c3ccccc3)n2)CN1 [Example 532]	26
O=C1C[C@H](C(=O)Nc2cc(-c3cccc(CO[C@@H]4CCOC4)c3)n(-c3ccccc3)n2)CN1 [Example 536]	15
O=C1C[C@H](C(=O)Nc2cc(-c3cccc(CO[C@H]4CCOC4)c3)n(-c3ccccc3)n2)CN1 [Example 537]	1
O=C1C[C@H](C(=O)Nc2cc(-c3cccc(CO[C@@H]4CCCOC4)c3)n(-c3ccccc3)n2)CN1 [Example 538]	33
O=C1C[C@H](C(=O)Nc2cc(-c3cccc(CO[C@H]4CCCOC4)c3)n(-c3ccccc3)n2)CN1 [Example 539]	35
CCS(=O)(=O)Cc1cccc(-c2cc(NC(=O)[C@@H]3CNC(=O)C3)nn2-c2ccccc2)c1 [Example 541]	24
O=C1C[C@H](C(=O)Nc2cc(-c3cccc(COC4COC4)c3)n(-c3ccccc3)n2)CN1 [Example 542]	18
O=C1C[C@H](C(=O)Nc2cc(-c3cccc(COC4CCOCC4)c3)n(-c3ccccc3)n2)CN1 [Example 543]	15
C[C@@H](OCc1cc(-c2cc(NC(=O)[C@@H]3CNC(=O)C3)nn2-c2ccccc2)cc(C(F)(F)F)c1)C(F)(F)F [Example 544]	21
O=C1CC[C@H](C(=O)Nc2cc(-c3cccc(COCC(F)(F)F)c3)n(-c3ccccc3)n2)N1 [Example 548]	3
O=C1CC[C@@H](C(=O)Nc2cc(-c3cccc(COCC(F)(F)F)c3)n(-c3ccccc3)n2)N1 [Example 549]	41
O=C1C[C@H](C(=O)Nc2cc(-c3cccc(S(=O)(=O)CC(F)(F)F)c3)n(-c3ccccc3)n2)CN1 [Example 550]	29
O=C1C[C@H](C(=O)Nc2cc(-c3cccc(S(=O)(=O)CCC(F)(F)F)c3)n(-c3ccccc3)n2)CN1 [Example 551]	42
O=C1C[C@H](C(=O)Nc2cc(-c3cccc(CS(=O)(=O)CC(F)(F)F)c3)n(-c3ccccc3)n2)CN1 [Example 552]	8
CC(C)CS(=O)(=O)c1cccc(-c2cc(NC(=O)[C@@H]3CNC(=O)C3)nn2-c2ccccc2)c1 [Example 553]	31
C[C@@H](OCc1cc(F)cc(-c2cc(NC(=O)[C@H]3CCC(=O)N3)nn2-c2ccccc2)c1)C(F)(F)F [Example 554]	32
C[C@@H](OCc1cccc(-c2cc(NC(=O)[C@H]3CCC(=O)N3)nn2-c2ccccc2)c1)C(F)(F)F [Example 556]	23
C[C@@H](OCc1cc(-c2cc(NC(=O)[C@@H]3CNC(=O)C3)nn2-c2ccccc2)ccc1F)C(F)(F)F [Example 557]	48
CC(C)(C)S(=O)(=O)c1cccc(-c2cc(NC(=O)[C@@H]3CNC(=O)C3)nn2-c2ccccc2)c1 [Example 569]	29

same assay, conditions: CHO-K1, at 0.3 uM

SMILES	inhibition at 0.3 µM [%]
CC(C)S(=O)(=O)Cc1cccc(-c2cc(NC(=O)[C@@H]3CNC(=O)C3)nn2-c2ccccc2)c1 [Example 566]	22
CC(C)S(=O)(=O)c1cccc(-c2cc(NC(=O)[C@@H]3CNC(=O)C3)nn2-c2ccccc2)c1 [Example 568]	27
